# T1: aromatase (Homo sapiens, UniProt P11511)
# T1 sequence (P11511 1-503): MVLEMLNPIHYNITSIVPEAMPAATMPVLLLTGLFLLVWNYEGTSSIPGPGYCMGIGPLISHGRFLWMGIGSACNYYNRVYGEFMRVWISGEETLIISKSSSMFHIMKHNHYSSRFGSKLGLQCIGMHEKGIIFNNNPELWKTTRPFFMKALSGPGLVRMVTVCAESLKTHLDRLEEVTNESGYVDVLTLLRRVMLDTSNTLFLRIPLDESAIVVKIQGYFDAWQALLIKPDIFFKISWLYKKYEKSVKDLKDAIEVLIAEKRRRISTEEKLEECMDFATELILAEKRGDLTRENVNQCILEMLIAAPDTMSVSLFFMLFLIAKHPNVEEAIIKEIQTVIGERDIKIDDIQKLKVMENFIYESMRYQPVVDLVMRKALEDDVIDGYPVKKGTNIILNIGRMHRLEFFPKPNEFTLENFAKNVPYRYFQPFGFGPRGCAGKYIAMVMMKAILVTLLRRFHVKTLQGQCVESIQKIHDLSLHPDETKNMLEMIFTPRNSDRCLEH
# Tests used:
# [1] = test system: DMBA-induced mammary tumors; assay: DMBA induced mammary tumor growth; type: in vivo, rat; conditions: 15 mg/kg/day sc osmotic pump, 42 days
# Experimental: The compounds of the present invention were also tested for the inhibition of tumor growth. Tumor growth inhibition was tested by the treatment of 50-day old female rats with the carcinogen, 7,12-dimethylbenz[a]anthracene[DMBA] and subsequently evaluated for tumor growth and/or remission (Huggins, C. et al., Nature 189:204, 1961; Russo, J. et al., Lab. Investigation 62: 244, 1990). Rats with DMBA-induced mammary tumors (≈[…]) were assigned to the following treatment groups: (1) Non-treated controls, (2) animals with subcutaneous implanted osmotic pump containing vehicle (DMSO/PEG200, 1:4 v/v), and (3) animals with subcutaneous implanted osmotic pump containing vehicle and 15 mg/kg/day of 2,19-(methyleneoxy) androst-4-ene-3,17-dione. Drug-treated animals also received 15 mg/kg/day via subcutaneous injections for the first two days of treatment as a priming dose. Tumor size was monitored for 42 days of drug treatment.
# [2] = test system: intratumor aromatase; assay: Inhibition of intratumor aromatase activity (estrogen formed); type: in vivo
# Text: According to the method of Johnston, J. O. et al., J. Steroid Biochem., 33:521, 1989, which is herein incorporated by reference, the compounds of the present invention were further evaluated for their effect upon intratumor aromatase activity.
# [3] = biological target: T1, aromatase; assay: Time-dependent aromatase inhibition assay (Kitz-Wilson kinetics); conditions: 25° C., Kitz-Wilson plots; for KI (inactivation): read-out: apparent Ki of inactivation, inhibitor concentration for half-maximal rate of enzyme inactivation
# Experimental: In this assay, the inhibitor is preincubated with enzyme prior to assaying for activity in the presence of high substrate levels. A time-related decrease in enzyme activity can be indicative of irreversible binding of the inhibitor with the enzyme.
# In the time-dependent assay, an amount of the enzyme inhibitor in 100 μl of the assay buffer described above which will provide assay concentrations which are usually between 1 nM and 10 μM are added to 35 ml centrifuge tubes containing 600 μl of the NADPH generating system. The preincubation is started by the addition of 700 μl of aromatase preparation, usually 500-800 μg of microsomal protein per ml of assay buffer. These preparations are mixed using a vortex mixer and incubated for 0, 10, 20, or 40 minutes at 25° C. […] Following vortexing, the enzyme incubation is continued for 10 minutes before being terminated by the addition of chloroform. The amount of radioactivity in the aqueous fraction is determined by scintillation procedures. The enzymatic activity for each concentration of inhibitor at each time period of preincubation is calculated as a percent of the "0" minute vehicle control arbitrarily set at 100%. Therefore, the present enzyme inhibition is expressed as a percentage: (100 percent minus percent enzyme activity with inhibitor present).
# Enzyme kinetic analysis utilized Kitz-Wilson plots for time-dependent assays. These analyses provide estimates of apparent Ki of inactivation which represents the inhibitor concentration required to produce half-maximal rate of enzyme inactivation. The pseudo first-order rate constant for enzyme inactivation (kcat) and the half-time of inactivation (.tau.50) of infinite inhibitor concentrations were determined.
# [4] = substrate: C[C@]12CCC(=O)C=C1CC[C@@H]1[C@@H]2CC[C@]2(C)C(=O)CC[C@@H]12; assay: purified protein, by the assay type; conditions: other: substrate of aromatase; 25.0 °C
# Experimental: In the time-dependent assay, an amount of the enzyme inhibitor in 100 μl of the assay buffer described above which will provide assay concentrations which are usually between 1 nM and 10 μM are added to 35 ml centrifuge tubes containing 600 μl of the NADPH generating system. The preincubation is started by the addition of 700 μl of aromatase preparation, usually 500-800 μg of microsomal protein per ml of assay buffer. […] The amount of radioactivity in the aqueous fraction is determined by scintillation procedures. The enzymatic activity for each concentration of inhibitor at each time period of preincubation is calculated as a percent of the "0" minute vehicle control arbitrarily set at 100%. Therefore, the present enzyme inhibition is expressed as a percentage: (100 percent minus percent enzyme activity with inhibitor present).
# Enzyme kinetic analysis utilized Kitz-Wilson plots for time-dependent assays. […] The pseudo first-order rate constant for enzyme inactivation (kcat) and the half-time of inactivation (.tau.50) of infinite inhibitor concentrations were determined.
molecule,measurement,setting,value
"C[C@]12CC[C@H]3[C@@H](CCC4=CC(=O)[C@H]5COC[C@]43C5)[C@@H]1CCC2=O [2,19-(methyleneoxy)androst-4-ene-3,17-dione]",percent of animals with no change,"[1]; 50 to 150% of original tumor volume, controls 6.7",14.3% of animals
same,percent of animals with partial tumor regression,"[1]; <50% of original tumor volume, controls 6.7",42.9% of animals
same,percent of animals with tumor progression,"[1]; >150% of original tumor volume, controls 80.0",28.6% of animals
same,percent of animals with complete tumor regression,"[1]; Complete (0%), controls 6.7",14.3% of animals
same,% Inhibition of intratumor aromatase activity,"[2]; 3 mg/kg intraveneous, 2 hours post treatment",70 ± 5%
same,"Estrogen formed, absolute level","[2]; 3 mg/kg intraveneous, 2 hours post treatment, vehicle control 294 ± 5",88 ± 15 picomoles/gram of tumor/hour
same,% Inhibition of intratumor aromatase activity,"[2]; 3 mg/kg intraveneous, 4 hours post treatment",41 ± 4%
same,"Estrogen formed, absolute level","[2]; 3 mg/kg intraveneous, 4 hours post treatment, vehicle control 294 ± 5",175 ± 12 picomoles/gram of tumor/hour
same,% Inhibition of intratumor aromatase activity,"[2]; 3 mg/kg intraveneous, 6 hours post treatment",37 ± 3%
same,"Estrogen formed, absolute level","[2]; 3 mg/kg intraveneous, 6 hours post treatment, vehicle control 294 ± 5",186 ± 9 picomoles/gram of tumor/hour
same,% Inhibition of intratumor aromatase activity,"[2]; 3 mg/kg oral, 2 hours post treatment",72 ± 5%
same,"Estrogen formed, absolute level","[2]; 3 mg/kg oral, 2 hours post treatment, vehicle control 173 ± 9",49 ± 8 picomoles/gram of tumor/hour
same,% Inhibition of intratumor aromatase activity,"[2]; 3 mg/kg oral, 4 hours post treatment",64 ± 4%
same,"Estrogen formed, absolute level","[2]; 3 mg/kg oral, 4 hours post treatment, vehicle control 173 ± 9",62 ± 7 picomoles/gram of tumor/hour
same,% Inhibition of intratumor aromatase activity,"[2]; 3 mg/kg oral, 6 hours post treatment",63 ± 5%
same,"Estrogen formed, absolute level","[2]; 3 mg/kg oral, 6 hours post treatment, vehicle control 173 ± 9",64 ± 9 picomoles/gram of tumor/hour
same,% Inhibition of intratumor aromatase activity,"[2]; 3 mg/kg subcutaneous, 2 hours post treatment",44 ± 5%
same,"Estrogen formed, absolute level","[2]; 3 mg/kg subcutaneous, 2 hours post treatment, vehicle control 121 ± 85",68 ± 6 picomoles/gram of tumor/hour
same,% Inhibition of intratumor aromatase activity,"[2]; 3 mg/kg subcutaneous, 4 hours post treatment",45 ± 32%
same,"Estrogen formed, absolute level","[2]; 3 mg/kg subcutaneous, 4 hours post treatment, vehicle control 121 ± 85",67 ± 3 picomoles/gram of tumor/hour
same,% Inhibition of intratumor aromatase activity,"[2]; 3 mg/kg subcutaneous, 6 hours post treatment",35 ± 7%
same,"Estrogen formed, absolute level","[2]; 3 mg/kg subcutaneous, 6 hours post treatment, vehicle control 121 ± 85",78 ± 9 picomoles/gram of tumor/hour
same,.tau.50 (half-time of inactivation at infinite inhibitor concentration),[3],2.86 min
same,KI (inactivation),[3],17.6 nM
"C[C@]12CC[C@H]3[C@@H](C=CC4=CC(=O)[C@H]5COC[C@]43C5)[C@@H]1CCC2=O [2,19-(methyleneoxy)androsta-4,6-diene-3,17-dione]",.tau.50 (half-time of inactivation at infinite inhibitor concentration),[3],2.82 min
same,KI (inactivation),[3],21.6 nM
"C[C@]12CC[C@H]3[C@@H](CCC4=CC(=O)[C@H]5CSC[C@]43C5)[C@@H]1CCC2=O [2,19-(methylenethio)androst-4-ene-3,17-dione]",.tau.50 (half-time of inactivation at infinite inhibitor concentration),[3],1.65 min
same,KI (inactivation),[3],53 nM
aromatase (Homo sapiens) (protein) MVLEMLNPIHYNITSIVPEAMPAATMPVLLLTGLFLLVWNYEGTSSIPGPGYCMGIGPLISHGRFLWMGIGSACNYYNRVYGEFMRVWISGEETLIISKSSSMFHIMKHNHYSSRFGSKLGLQCIGMHEKGIIFNNNPELWKTTRPFFMKALSGPGLVRMVTVCAESLKTHLDRLEEVTNESGYVDVLTLLRRVMLDTSNTLFLRIPLDESAIVVKIQGYFDAWQALLIKPDIFFKISWLYKKYEKSVKDLKDAIEVLIAEKRRRISTEEKLEECMDFATELILAEKRGDLTRENVNQCILEMLIAAPDTMSVSLFFMLFLIAKHPNVEEAIIKEIQTVIGERDIKIDDIQKLKVMENFIYESMRYQPVVDLVMRKALEDDVIDGYPVKKGTNIILNIGRMHRLEFFPKPNEFTLENFAKNVPYRYFQPFGFGPRGCAGKYIAMVMMKAILVTLLRRFHVKTLQGQCVESIQKIHDLSLHPDETKNMLEMIFTPRNSDRCLEH,Km,[4],0.04 µM
